Measurements from ChEMBL document CHEMBL1201862, “PubChem BioAssay data set” (2004).
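In this assay, cells in 96-well plates receive the compound at five concentrations for 48 hours. Endpoints are linearly interpolated between the surrounding concentrations. Here, GI50 denotes the concentration required for 50% inhibition of growth.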 The source made the active and inactive calls. Rule as the data show it: active = GI50 up to about 1.1 µM and inactive = higher.

Tests used:
Assay in all cases: DTP human tumour cell line panel, 48 h
NCI-H23 = test system: NCI-H23
SF-268 = test system: SF-268
U-251 = test system: U-251
RXF 393 = test system: RXF 393
SW-620 = test system: SW-620
HL-60 = test system: HL-60
OVCAR-3 = test system: OVCAR-3
A549 = test system: A549
SK-MEL-2 = test system: SK-MEL-2
SF-539 = test system: SF-539
MDA-N = test system: MDA-N
DU-145 = test system: DU-145
MDA-MB-231 = test system: MDA-MB-231
SR = test system: SR

Compound	GI50 (NCI-H23)	GI50 (SF-268)	GI50 (U-251)	GI50 (RXF 393)	GI50 (SW-620)	GI50 (HL-60)	GI50 (OVCAR-3)	GI50 (A549)	GI50 (SK-MEL-2)	GI50 (SF-539)	GI50 (MDA-N)	GI50 (DU-145)	GI50 (MDA-MB-231)	GI50 (SR)
c1nc2nc[nH]c(SSc3[nH]cnc4ncnc3-4)c-2n1	0.292 µM (active)	0.897 µM (active)	5.68 µM (inactive)	> 100 µM (inactive)	0.824 µM (active)	2.14 µM (inactive)	< 0.0442 µM (active)	13.9 µM (inactive)	8.22 µM (inactive)	–	–	–	–	–
COc1nc(-c2cn(S(=O)(=O)c3ccc(C)cc3)c3ccc(Br)cc23)cc(C(F)(F)F)c1C#N	18.8 µM (inactive)	53.2 µM (inactive)	16.9 µM (inactive)	19.8 µM (inactive)	66.2 µM (inactive)	86.7 µM (inactive)	18 µM (inactive)	> 100 µM (inactive)	65.6 µM (inactive)	34.9 µM (inactive)	> 100 µM (inactive)	16.5 µM (inactive)	–	–
CC1CN=C(Nc2cccc(C(F)(F)F)c2)S1 (configuration not stated)	36.1 µM (inactive)	44 µM (inactive)	54.7 µM (inactive)	42.9 µM (inactive)	–	20.7 µM (inactive)	51.5 µM (inactive)	–	77.6 µM (inactive)	> 100 µM (inactive)	40.6 µM (inactive)	70.8 µM (inactive)	28.1 µM (inactive)	21.7 µM (inactive)
COc1ccc(OC)c(C(=O)/C=C/c2cc(O)c(O)cc2F)c1	0.535 µM (active)	0.643 µM (active)	0.486 µM (active)	1.37 µM (inactive)	0.845 µM (active)	0.0361 µM (active)	0.18 µM (active)	9.57 µM (inactive)	1.02 µM (active)	0.258 µM (active)	0.181 µM (active)	0.817 µM (active)	1.41 µM (inactive)	0.227 µM (active)
CC(C)(C)[Si](C)(C)OCCOCn1cc(F)c(=O)[nH]c1=O	> 100 µM (inactive)	> 100 µM (inactive)	> 100 µM (inactive)	> 100 µM (inactive)	> 100 µM (inactive)	> 100 µM (inactive)	> 100 µM (inactive)	> 100 µM (inactive)	> 100 µM (inactive)	> 100 µM (inactive)	> 100 µM (inactive)	36.5 µM (inactive)	–	> 100 µM (inactive)
COc1ccc(N2C(=O)CSC2c2c[nH]c3ccccc23)cc1 (configuration not stated)	69.7 µM (inactive)	> 100 µM (inactive)	88.7 µM (inactive)	> 100 µM (inactive)	> 100 µM (inactive)	23.6 µM (inactive)	> 100 µM (inactive)	–	–	–	35.2 µM (inactive)	51.8 µM (inactive)	72.9 µM (inactive)	43 µM (inactive)
S=C(N/N=C(/c1ccccc1)c1ccccn1)Nc1cccc(Cl)c1	1.04 µM (active)	0.462 µM (active)	0.169 µM (active)	1.08 µM (active)	< 0.0385 µM (active)	< 0.0277 µM (active)	–	1.55 µM (inactive)	0.839 µM (active)	1.48 µM (inactive)	0.557 µM (active)	1.15 µM (inactive)	< 0.0202 µM (active)	< 0.026 µM (active)
N#CC1=C(N)C(C#N)(C#N)C(c2ccc(F)cc2)C=C1C1CC1 (configuration not stated)	4.22 µM (inactive)	4.81 µM (inactive)	5.68 µM (inactive)	5.96 µM (inactive)	6.95 µM (inactive)	4.13 µM (inactive)	5.27 µM (inactive)	13.8 µM (inactive)	6.52 µM (inactive)	0.597 µM (active)	2.27 µM (inactive)	12.9 µM (inactive)	16.5 µM (inactive)	3.27 µM (inactive)
Nc1ncnc2c1sc1nc3ccccc3n12	> 100 µM (inactive)	19.4 µM (inactive)	53.1 µM (inactive)	12.8 µM (inactive)	> 100 µM (inactive)	–	> 100 µM (inactive)	> 49.1 µM (inactive)	> 100 µM (inactive)	20.4 µM (inactive)	–	> 100 µM (inactive)	44.8 µM (inactive)	–
Cc1[nH]c(=O)nc(S)c1C(=O)NC1C2CCCCC2NC2CCCCC21 (configuration not stated)	14.4 µM (inactive)	–	13.9 µM (inactive)	13.5 µM (inactive)	18.1 µM (inactive)	> 100 µM (inactive)	16 µM (inactive)	–	17.4 µM (inactive)	–	11.5 µM (inactive)	11.8 µM (inactive)	14.9 µM (inactive)	28.6 µM (inactive)
O=C1CC(=O)N(c2ccccc2)N1/C(=C/c1ccccc1)c1ccccc1	23.2 µM (inactive)	16.2 µM (inactive)	14.3 µM (inactive)	16.7 µM (inactive)	17.3 µM (inactive)	–	20.3 µM (inactive)	26.1 µM (inactive)	23.7 µM (inactive)	–	13.6 µM (inactive)	24.4 µM (inactive)	10.6 µM (inactive)	12.3 µM (inactive)
